# Experiments:
# [1] = system: buckhorn plantain (Plantago lanceolata, PLALA); assay: Field trial, post-emergence foliar application, weed control of buckhorn plantain; assay type: in vivo; conditions: applied alone
# Source text: The (a) aminocyclopyrachlor or an agriculturally acceptable salt or ester thereof is mixed with or applied in combination with (b) clopyralid or an agriculturally acceptable salt or ester thereof in an amount sufficient to induce a synergistic herbicidal effect. […] As described in the Herbicide Handbook of the Weed Science Society of America, Ninth Edition, 2007, p. 429, “'synergism' [is] an interaction of two or more factors such that the effect when combined is greater than the predicted effect based on the response to each factor applied separately.” Synergistic in the herbicide context can mean that the use of (a) and (b) as defined above results in an increased weed control effect compared to the weed control effects that are possible with the use of (a) or (b) alone. In some embodiments, the damage or injury to the undesired vegetation caused by the compositions and methods disclosed herein is evaluated using a scale from 0% to 100%, when compared with the untreated control vegetation, wherein 0% indicates no damage to the undesired vegetation and 100% indicates complete destruction of the undesired vegetation. […] 22 (1967) Field trials were conducted with applications made to established grassland with naturally occurring weed populations. The target plants were treated with postemergence foliar applications when they reached three to five inches tall. All treatments were applied using a randomized complete block trial design, with 4 replications per treatment. Treatments consisted of aminocyclopyrachlor in acid form and clopyralid-olamine, each in water and applied alone or in combination. Spray solutions were prepared using an appropriate amount of dilution to form a 2 L aqueous spray solution with active ingredients in single and two way combinations. Formulated compounds were applied to the plant material with a backpack sprayer equipped with 8003 nozzles calibrated to deliver 187 L/ha at a spray height of 18 inches (43 centimeters (cm)) above average plant canopy. The treated plants were buckhorn plantain (Plantago lanceolata, PLALA) and […] clover (Medicago arabica, MEDAB). The treated plots and control plots were rated blind at various intervals after application. Ratings were based on a scale of 0-100%, as discussed above, wherein 0% indicates no damage to the undesired vegetation and 100% indicates complete destruction of the undesired vegetation Colby's equation was used to determine the herbicidal effects expected from the mixtures, as described above. The results were measured at 7 days and 27 days after the first application of the compositions. […] The herbicide tank mix combinations tested, application rates and ratios employed, plant species tested, and results are given below.
# [2] = system: calvary clover (Medicago arabica, MEDAB); assay: Field trial, post-emergence foliar application, weed control of calvary clover; assay type: in vivo; conditions: 27 days, applied alone
# Source text: The (a) aminocyclopyrachlor or an agriculturally acceptable salt or ester thereof is mixed with or applied in combination with (b) clopyralid or an agriculturally acceptable salt or ester thereof in an amount sufficient to induce a synergistic herbicidal effect. […] As described in the Herbicide Handbook of the Weed Science Society of America, Ninth Edition, 2007, p. 429, “'synergism' [is] an interaction of two or more factors such that the effect when combined is greater than the predicted effect based on the response to each factor applied separately.” Synergistic in the herbicide context can mean that the use of (a) and (b) as defined above results in an increased weed control effect compared to the weed control effects that are possible with the use of (a) or (b) alone. In some embodiments, the damage or injury to the undesired vegetation caused by the compositions and methods disclosed herein is evaluated using a scale from 0% to 100%, when compared with the untreated control vegetation, wherein 0% indicates no damage to the undesired vegetation and 100% indicates complete destruction of the undesired vegetation. […] 22 (1967) Field trials were conducted with applications made to established grassland with naturally occurring weed populations. The target plants were treated with postemergence foliar applications when they reached three to five inches tall. All treatments were applied using a randomized complete block trial design, with 4 replications per treatment. Treatments consisted of aminocyclopyrachlor in acid form and clopyralid-olamine, each in water and applied alone or in combination. Spray solutions were prepared using an appropriate amount of dilution to form a 2 L aqueous spray solution with active ingredients in single and two way combinations. Formulated compounds were applied to the plant material with a backpack sprayer equipped with 8003 nozzles calibrated to deliver 187 L/ha at a spray height of 18 inches (43 centimeters (cm)) above average plant canopy. […] The results were measured at 7 days and 27 days after the first application of the compositions. […]
Structure (SMILES),"Mean % weed control ([1]; 7 days, 18 g ae/ha) [%]","Mean % weed control ([1]; 27 days, 18 g ae/ha) [%]","Mean % weed control ([1]; 27 days, 35 g ae/ha) [%]",Mean % weed control ([2]; 18 g ae/ha) [%],"Mean % weed control ([1]; 7 days, 35 g ae/ha) [%]","Mean % weed control ([1]; 27 days, 70 g ae/ha) [%]",Mean % weed control ([2]; 35 g ae/ha) [%],Mean % weed control ([2]; 70 g ae/ha) [%]
"Nc1nc(C2CC2)nc(C(=O)O)c1Cl [Aminocyclopyrachlor, 6-amino-5-chloro-2-cyclopropylpyrimidine-4-carboxylic acid]",18.75,22.5,35,27.5,,,,
"O=C(O)c1nc(Cl)ccc1Cl [Clopyralid-olamine, clopyralid-olamine]",,,,,18,28,13,30
